Paper PMC4658139 (PLoS ONE, 2015)
Read-outs that look alike come from different tables or passages of the source.

Legend:
[1] = tested on: porcine brain capillary endothelial cells (PBCEC)
PBCEC monolayer [2] = tested on: PBCEC monolayer
PBCEC monolayer [3] = assay type: cell-based, porcine
Sprague-Dawley rats [4] = conditions: rat, in vivo, po; cited from earlier work
Sprague-Dawley rats [5] = conditions: rat, in vivo, po; cited from earlier work; remark: listed apart in the source
dendric cells = conditions: cited from earlier work
PBCEC monolayer [6] = conditions: pig
macrophages = conditions: cited from earlier work
in vitro = conditions: pig
PBCEC monolayer [7] = conditions: pig; remark: listed apart in the source
[8] = tested on: normal human astrocytes (NHA); conditions: read-out: IC50, cytotoxic effects; cited from earlier work
[9] = pig, in vivo, 0.6 mg; cited from earlier work
[10] = pig, in vivo; cited from earlier work

SMILES: CC(=O)O[C@@H]1C[C@]2(C)[C@@]3(CO)[C@H](O)C(=O)C(C)=C[C@H]3O[C@H]1[C@@]21CO1 [3-AcDON, 3-acetyldeoxynivalenol]
- effect in CCK-8 assay (dehydrogenase activity), in words [1]: significant increase in dehydrogenase activity
- concentration in the apical compartment (PBCEC monolayer [2]; pig): 174 ± 20 nM
- concentration in the basolateral compartment (PBCEC monolayer [2]; pig): 198 ± 16 nM
- enrichment in one compartment / active transport, in words (PBCEC monolayer [2]; pig): an active transfer or a noteworthy enrichment of DON or 3-AcDON can be excluded
- change of electrical capacitance c CL, in words (PBCEC monolayer [3]): Neither 3-AcDON, nor MON showed significant changes
- relative TEER after 48 h (PBCEC monolayer [3]): 63±9%

SMILES: O=c1cc(O)c1=O [MON, moniliformin]
- LD50 cut-off value (Sprague-Dawley rats [4]): 25 mg/kg body weight
- administered dose detected in urine (Sprague-Dawley rats [4]): 38%
- total recovery in feces (Sprague-Dawley rats [4]): less than 1%
- total recovery in urine (Sprague-Dawley rats [4]): 42%
- administered dose detected in feces (Sprague-Dawley rats [5]): 2%
- administered dose excreted via urine (Sprague-Dawley rats [5]): 20.2-31.5%
- lowest observed adverse effect level (LOAEL) (Sprague-Dawley rats [5]): 3 mg/kg body weight
- reduction of cellular viability (dendric cells): 20%
- amount detected in the basolateral compartment (PBCEC monolayer [6]): 27±6%
- amount recovered in the apical compartment (PBCEC monolayer [6]): 76±12%
- effect on cellular viability, in words [1]: no significant effects on the cellular viability
- effect on viability of macrophages, in words (macrophages): does not reduce the viability of macrophages
- enrichment in one compartment / active transport, in words (PBCEC monolayer [2]): not enriched in any compartment
- concentration in the apical compartment (PBCEC monolayer [2]; pig): 237 ± 23 nM
- concentration in the basolateral compartment (PBCEC monolayer [2]; pig): 228 ± 27 nM
- Papp A→B (in vitro): 1.07 ± 0.23 ×10⁻⁶ cm/s
- change of electrical capacitance c CL, in words (PBCEC monolayer [3]): Neither 3-AcDON, nor MON showed significant changes
- relative TEER after 48 h (PBCEC monolayer [3]): 94±15%
- p c(14C sucrose), sucrose permeability of the monolayer after mycotoxin incubation (PBCEC monolayer [7]): 0.19±0.05

SMILES: CC(=O)OC[C@]12C[C@H](OC(=O)CC(C)C)C(C)=C[C@H]1O[C@@H]1[C@H](O)[C@@H](OC(C)=O)[C@@]2(C)[C@]12CO2 [T-2 toxin, reference compound]
- cellular viability ([1]; 10 µM): < 2%
- IC50 [8]: 24 ± 4.5 nM

SMILES: CC1=C[C@H]2O[C@@H]3[C@H](O)C[C@](C)([C@@]2(CO)[C@H](O)C1=O)[C@]31CO1 [DON, deoxynivalenol]
- systemic bioavailability [9]: 48–65%
- effect in CCK-8 assay (dehydrogenase activity), in words [1]: significant increase in dehydrogenase activity
- enrichment in one compartment / active transport, in words (PBCEC monolayer [2]): no enrichment in the apical or the basolateral compartment was detected
- concentration in the apical compartment (PBCEC monolayer [2]; pig): 211 ± 15 nM
- concentration in the basolateral compartment (PBCEC monolayer [2]; pig): 199 ± 14 nM
- time of maximum concentration in CSF and blood [10]: 4.5 h
- electrical capacitance c CL after 48 h (PBCEC monolayer [3]): 81±2%
